Test results from EP3246028A1, “QUINOLINE COMPOUNDS FOR INCREASING INSULINE RELEASE” (Max-Planck-Gesellschaft zur Förderung der Wissenschaften …, priority 2016, dated 2017).
Entries after “also recorded” stand apart in the source; their conditions may differ.

Key:
[1] = test system: RIN-5AH insulinoma beta cell line; assay: Insulin secretion (insulin ELISA of supernatants); format: cell-based; conditions: for activation at 5 µM: RIN-5AH cells, treated in medium for 2 hours, read-out: AV_INSULIN (percent increase in insulin secretion over a DMSO control)
Description: Culture medium and supplements were purchased from Life Technologies. The RIN-5AH insulinoma beta cell line was cultured in RPMI 1640 supplemented with 10% FBS, 2 mM glutamine. All culture media contained 1x penicillin-streptomycin. Cells were grown on 15 cm culture plates at 37°C under 5% CO2 in high humidity atmosphere.
To determine the insulin level from the supernatants insulin ELISA kits from Millipore or Mercodia were used. RIN-5AH cells were seeded in 96 well or 12 well plates and grown overnight. RIN-5AH cells never reached more than 80% confluency before treatment. Cells were washed once with PBS before treatment. Cells were treated in medium for 2 hours and with 5 µM of insulin secretagogue according to the present invention, if not otherwise indicated. After treatment 100ul of supernatant was taken. Samples were assayed immediately or stored at -20°C until measurement. Dilutions were made if necessary and ELISA was subsequently performed according to the user's manual. Insulin secretion was normalized to cell number by MTT assay or to total protein amount by BCA assay (ThermoFisher Scientific, 23225). Plates were read on BioTrek Elx800 absorbance reader at 450 nm.
RIN-5AH beta cells were treated with 5 µM compound 12 or 50 µM quinidine or chloroquine according to the above described protocol (Example 1).

RIN-5AH cells = assay: Calcium influx by FACS analysis (Fluo-4 AM fluorescence); format: cell-based; conditions: extracellular Ca2+ present, compound 12 at 5 µM, Figure 2
Description: Calcium influx was measured by FACS analysis, similar to protocols previously described (Brewis, I. A., journal of andrology 21, 238-249, doi:10.1002/j.1939-4640.2000.tb02101.x (2000); Vines, A., Cytometry Part A 77A, 1091-1097, doi:10.1002/cyto.a.20974 (2010); Schepers, E., Journal of Immunological Methods 348, 74-82, doi:http://dx.doi.org/10.1016/j.jim.2009.07.002 (2009)).
RIN-5AH cells (30,000 cells per well) were plated in 12 well plates and incubated overnight at 37°C and 5% CO2. Cells were stained with Fluo-4 AM (molecular probes, F14201) by using a 3µM stock solution prepared in HBSS with Ca2+ and Mg2+ (HBSS++) and with addition of a final amount of 0.02% Pluronic-F127 (molecular probes, P6867). Cells were incubated with 600ul of the dye/well for 1h at 37°C, in 5% CO2. They were washed 2x with Ca2+ and Mg2+ free HBSS (HBSS--) (Gibco, 14170) before moving to the next step of the protocol (see below).
Cells were trypsinized for three minutes at 37°C and 5% CO2. The cell suspension was then diluted by adding 1ml HBSS-- / well and centrifuged for 3 minutes at 1200 RPM. Cells were resuspended in 1 mL of HBSS++ or HBSS-- before starting the measurement. Base fluorescent signal was recorded for 30 seconds followed by treatment with the various compounds by quickly adding the compounds to the FACS analysis tubes, while acquisition was not interrupted (gaps). […] Samples were measured continuously for the desired time and all measurements were completed within 40 minutes. Unstained cells and stained cells in external buffer without Ca2+ and Mg2+ (HBSS--) were used as negative controls for the treatments. Data were acquired on BD-FACSCalibur and the visualizations were prepared by FlowJo software.

| SMILES | activation at 5 µM [1] [%] | divalent calcium cation influx (Fluo-4 AM fluorescence by FACS) (RIN-5AH cells) | effect on insulin secretion ([1]; negative control quinoline compounds) |
| --- | --- | --- | --- |
| N#Cc1cc(-c2cccc(N)c2)c2ccc(F)cc2n1 [Compound 1, 4-(3-aminophenyl)-7-fluoro-quinoline-2-carbonitrile] | 151 | – | – |
| CN(C)C(=O)c1cc(Nc2cc(C#N)nc3c(Br)cccc23)c(Cl)cc1Cl [Compound 2, 5-[(8-bromo-2-cyano-4-quinolyl)amino]-2,4-dichloro-N,N-dimethyl-benzamide] | 125 | – | – |
| COc1cc(Nc2cc(C#N)nc3c(Br)cccc23)c(Cl)cc1Cl [Compound 3, 8-bromo-4-(2,4-dichloro-5-methoxy-anilino)quinoline-2-carbonitrile] | 116 | – | – |
| COc1c(F)ccc2c(Nc3ccc(Cl)cc3C(F)(F)F)cc(C#N)nc12 [Compound 4, 4-[4-chloro-2-(trifluoromethyl)anilino]-7-fluoro-8-methoxy-quinoline-2-carbonitrile] | 101 | induced divalent calcium cation influx | – |
| N#Cc1cc(Nc2ccc(Cl)cc2C(F)(F)F)c2cc(F)ccc2n1 [Compound 5, 4-[4-chloro-2-(trifluoromethyl)anilino]-6-fluoro-quinoline-2-carbonitrile] | 96 | induced divalent calcium cation influx | – |
| N#Cc1cc(-c2cccc(NS(=O)(=O)c3c(F)cccc3F)c2)c2ccc(F)cc2n1 [Compound 6, N-[3-(2-cyano-7-fluoro-4-quinolyl)phenyl]-2,6-difluoro-benzenesulfonamide] | 94 | – | – |
| N#Cc1cc(Nc2ccc(Cl)cc2C(F)(F)F)c2cccc(F)c2n1 [Compound 7, 4-[4-chloro-2-(trifluoromethyl)anilino]-8-fluoro-quinoline-2-carbonitrile] | 93 | induced divalent calcium cation influx; also recorded: induced Ca2+ influx | – |
| COc1c(F)ccc2c(Nc3c(Cl)cccc3Cl)cc(C#N)nc12 [Compound 8, 4-(2,6-dichloroanilino)-7-fluoro-8-methoxy-quinoline-2-carbonitrile] | 93 | induced divalent calcium cation influx; also recorded: induced Ca2+ influx | – |
| COc1cc2c(Oc3ccc(NS(=O)(=O)c4cccc(-c5ccccc5)c4)cc3F)ccnc2cc1OCCCN [Compound 9, N-[4-[[7-(3-aminopropoxy)-6-methoxy-4-quinolyl]oxy]-3-fluoro-phenyl]-3-phenyl-benzenesulfonamide] | 90 | – | – |
| COc1cc(Nc2cc(C#N)nc3ccc(F)cc23)c(Cl)cc1Cl [Compound 10, 4-(2,4-dichloro-5-methoxy-anilino)-6-fluoro-quinoline-2-carbonitrile] | 89 | – | – |
| N#Cc1cc(-c2cccc(NC(=O)c3cccc(C(F)(F)F)c3)c2)c2ccc(F)cc2n1 [Compound 11, N-[3-(2-cyano-7-fluoro-4-quinolyl)phenyl]-3-(trifluoromethyl)benzamide] | 86 | – | – |
| COc1cc2c(Nc3ccc(Cl)cc3C(F)(F)F)cc(C#N)nc2cc1F [Compound 13, 4-[4-chloro-2-(trifluoromethyl)anilino]-7-fluoro-6-methoxy-quinoline-2-carbonitrile] | 83 | induced divalent calcium cation influx; also recorded: induced Ca2+ influx | – |
| N#Cc1cc(Nc2ccc(F)c(Cl)c2)c2cc(Cl)cc(Cl)c2n1 [Compound 14, 6,8-dichloro-4-(3-chloro-4-fluoro-anilino)quinoline-2-carbonitrile] | 78 | – | – |
| COc1ccc2nc(C#N)cc(Nc3cc(OC)c(Cl)cc3Cl)c2c1 [Compound 15, 4-(2,4-dichloro-5-methoxy-anilino)-6-methoxy-quinoline-2-carbonitrile] | 78 | – | – |
| COc1c(F)ccc2c(Nc3ccc(C)c(C)c3)cc(C#N)nc12 [Compound 16, 4-(3,4-dimethylanilino)-7-fluoro-8-methoxy-quinoline-2-carbonitrile] | 78 | – | – |
| COc1cc(Nc2c(C#N)cnc3cc(OCCCN)c(OC)cc23)c(Cl)cc1Cl [Compound 17, 7-(3-aminopropoxy)-4-(2,4-dichloro-5-methoxy-anilino)-6-methoxy-quinoline-3-carbonitrile] | 74 | – | – |
| N#Cc1cc(Nc2c(Cl)cccc2Cl)c2cccc(F)c2n1 [Compound 18, 4-(2,6-dichloroanilino)-8-fluoro-quinoline-2-carbonitrile] | 73 | induced divalent calcium cation influx; also recorded: induced Ca2+ influx | – |
| COc1cc(Nc2cc(C#N)nc3c(F)cccc23)c(Cl)cc1Cl [Compound 19, 4-(2,4-dichloro-5-methoxy-anilino)-8-fluoro-quinoline-2-carbonitrile] | 70 | – | – |
| COc1cc2c(Nc3ccc(Cl)cc3Cl)c(C#N)cnc2cc1OCCCN [Compound 20, 7-(3-aminopropoxy)-4-(2,4-dichloroanilino)-6-methoxy-quinoline-3-carbonitrile] | 67 | – | – |
| COc1cc2c(Nc3c(Cl)cccc3Cl)cc(C#N)nc2cc1F [Compound 21, 4-(2,6-dichloroanilino)-7-fluoro-6-methoxy-quinoline-2-carbonitrile] | 65 | – | – |
| COc1cc(Nc2cc(C#N)nc3c(C(F)(F)F)cccc23)c(Cl)cc1Cl [Compound 22, 4-(2,4-dichloro-5-methoxy-anilino)-8-(trifluoromethyl)quinoline-2-carbonitrile] | 58 | – | – |
| CN(C)Cc1cc(Nc2cc(C#N)nc3cc(F)ccc23)c(Cl)cc1Cl [Compound 23, 4-[2,4-dichloro-5-(dimethylaminomethyl)anilino]-7-fluoro-quinoline-2-carbonitrile] | 57 | – | – |
| COc1cc2nccc(-c3cccc(Nc4cc(C#N)nc5c(F)cccc45)c3)c2cc1OC [Compound 24, 4-[3-(6,7-dimethoxy-4-quinolyl)anilino]-8-fluoro-quinoline-2-carbonitrile] | 57 | – | – |
| CN(C)C(=O)c1cc(Nc2cc(C#N)nc3c(F)cccc23)c(Cl)cc1Cl [Compound 25, 2,4-dichloro-5-[(2-cyano-8-fluoro-4-quinolyl)amino]-N,N-dimethyl-benzamide] | 48 | – | – |
| COc1cc2c(Oc3ccc(NS(=O)(=O)c4cccc(-c5ccccc5)c4)cc3F)ccnc2cc1OCCCN1CCOCC1 [Compound 26, N-[3-fluoro-4-[[6-methoxy-7-(3-morpholinopropoxy)-4-quinolyl]oxy]phenyl]-3-phenyl-benzenesulfonamide] | 47 | – | – |
| COc1cc2nccc(-c3cccc(Nc4cc(C(N)=O)nc5c(F)cccc45)c3)c2cc1OC [Compound 27, 4-[3-(6,7-dimethoxy-4-quinolyl)anilino]-8-fluoro-quinoline-2-carboxamide] | 46 | – | – |
| CN(C)C(=O)c1cc(Nc2cc(C#N)nc3cc(F)ccc23)c(Cl)cc1Cl [Compound 28, 2,4-dichloro-5-[(2-cyano-7-fluoro-4-quinolyl)amino]-N,N-dimethyl-benzamide] | 45 | – | – |
| N#Cc1cc(Nc2c(Cl)cccc2Cl)c2cc(F)ccc2n1 [Compound 29, 4-(2,6-dichloroanilino)-6-fluoro-quinoline-2-carbonitrile] | 41 | – | – |
| COc1cc(Nc2cc(C#N)nc3cc(F)c(OCCCN4C(=O)c5ccccc5C4=O)cc23)c(Cl)cc1Cl [Compound 63, 4-(2,4-dichloro-5-methoxy-anilino)-6-[3-(1,3-dioxoisoindolin-2-yl)propoxy]-7-fluoro-quinoline-2-carbonitrile] | – | did not show any increase | didn't show any effect |
| COc1cc2c(Nc3cc(OC)c(Cl)cc3Cl)cc(C#N)nc2cc1F [Compound 75, 4-(2,4-dichloro-5-methoxy-anilino)-7-fluoro-6-methoxy-quinoline-2-carbonitrile] | 116 | – | – |
